Assay results reported in patent publication US9592223B2, “Small molecule inhibitors of MALT1” (Cornell University, priority 2012, dated 2017).

Columns and labels:
HBL-1 and TMD8 cells = test: Trypan blue exclusion and Annexin V+ DAPI- apoptosis over 14 days, ABC-DLBCL lines; type: cell-based, human; conditions: treated daily at GI25 and GI50, every 48 hr for 14 days
Procedure: (§1) Cell proliferation was examined using the CFSE dilution assay by flow cytometry on viable cells at 48, 72 and 96 h. […] Trypan blue exclusion and apoptosis assessed by Annexin V^+ DAPI^− flow cytometry was measured every 48 hr for a period of 14 days.
Apoptosis was assessed by AnnexinV-APC/DAPI (BD Pharmingen) staining followed by flow cytometry.

HBL-1, TMD8 and OCI-Ly10 = test: CFSE dilution assay by flow cytometry, ABC-DLBCL lines; type: cell-based, human; conditions: viable cells at 48, 72 and 96 h
Procedure: as §1
CFSE covalently labels long-lived intracellular molecules with carboxyfluorescein. Following each cell division, fluorescent molecules dilute in daughter cells, allowing comparative study of the kinetics of cell division. Cells were stained with DAPI (Sigma), followed by flow cytometry. DAPI^neg cells were gated for analysis.

Caspase-3/7 activity = Caspase-3/7 activity or apoptosis in cell-based assays; conditions: concentrations which suppress MALT1
[1] = test system: ABC-DLBCL cell lines (HBL1 and TMD8); test: Caspase-3/7 cleavage assay for apoptosis; type: cell-based, human
Caspase-9 = Caspase-9 (Homo sapiens, UniProt P55211); test: Caspase selectivity; type: biochemical
Chain of Caspase-9 (P55211 whole entry, species assumed): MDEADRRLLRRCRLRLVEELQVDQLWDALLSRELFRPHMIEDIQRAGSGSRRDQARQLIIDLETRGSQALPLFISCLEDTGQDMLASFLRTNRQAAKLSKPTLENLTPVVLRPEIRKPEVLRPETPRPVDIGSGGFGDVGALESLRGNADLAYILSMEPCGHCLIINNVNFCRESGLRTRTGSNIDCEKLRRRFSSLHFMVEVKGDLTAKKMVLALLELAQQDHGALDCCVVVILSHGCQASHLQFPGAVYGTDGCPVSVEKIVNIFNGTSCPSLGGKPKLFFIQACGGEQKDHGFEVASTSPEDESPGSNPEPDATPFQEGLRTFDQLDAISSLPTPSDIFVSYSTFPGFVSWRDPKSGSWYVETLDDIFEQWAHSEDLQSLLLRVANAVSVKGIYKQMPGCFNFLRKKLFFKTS

OCI-Ly1 xenografts = test: OCI-Ly1 xenograft in NOD-SCID mice; type: in vivo; conditions: IP 25 mg/kg/day
Procedure: Animals were sacrificed 24 hr after the fourteenth injection.
Eight-week old male SCID NOD.CB17-Prkdc^scid/J mice were subcutaneously injected with low-passage 10^7 human HBL-1, TMD8 or OCI-Ly1 cells. Treatment was administered by intra-peritoneal injection. Tumor volume was monitored by three-weekly digital calipering. All procedures followed US NIH protocols and were approved by the Animal Institute Committee of the Weill Cornell Medical College.
Eight-week old male SCID NOD.CB17-Prkdc^scid/J mice were purchased from Jackson Laboratories (Bar Harbor, Minn.) and housed in a clean environment. Mice were subcutaneously injected with low-passage 10^7 human TMD8 or OCI-Ly1 cells in 50% matrigel (BD Biosciences, #354234). Treatment was initiated when tumors reached an average size of 120 mm^3 (17 days post-transplantation). Drugs were reconstituted in DMSO and stored at −80° C. until used and were administered by intra-peritoneal injection. Tumor volume was monitored by three-weekly digital calipering (Fisher Scientific, Thermo Scientific, Rockford, Ill.) and calculated using the formula (smallest diameter^2×largest diameter)/2. Data were expressed as mean±SEM, and differences were considered statistically significant at p<0.05 by paired Student's t-test. […]

[2] = Toxicity 2: 25 mg/kg daily IP for 14 days, blood count, serum chemistry, histology; type: in vivo, mice; conditions: for ALBUMIN / ALP / ALT / AST / BASOPHILS / BUN / CALCIUM / CHLORIDE / CHOLESTEROL / CK / CREATININE / DIRECT BILIRUBIN / EOSINOPHILS / GGT / GLOBULIN / GLUCOSE / HEMATOCRIT / HEMOGLOBIN / INDIRECT BILIRUBIN / LYMPHOCYTES / MONOCYTES / NEUTROPHILS / PHOSPHORUS / PLATELETS / RBC / SODIUM / TOTAL BILIRUBIN / TOTAL PROTEIN / WBC: 25 mg/kg IP daily 14 days
Description: Brain, heart, lung, liver, kidney, bowel, spleen, thymus and bone marrow tissues were examined.

Q: Which viability and apoptosis (HBL-1 and TMD8 cells) does the source give for COCCOc1nc(-c2ccc(Cl)c(Cl)c2)n(-c2ccc(NC(=O)CCl)cc2)n1 [MI-2] here?
A: Its viability and apoptosis is “profoundly suppressed”.

Q: And the “cell proliferation (CFSE dilution)” value (HBL-1, TMD8 and OCI-Ly10)?
A: The value was “substantially inhibited proliferation”.

Q: What about the “inhibition of Caspase-3/7 activity or apoptosis” value (Caspase-3/7 activity) of the same compound?
A: The value was “did not inhibit”.

Q: What about the “apoptosis (Caspase-3/7 cleavage)” value [1] of the same compound?
A: Its value is “dose dependent apoptosis within 48 hr”.

Q: And the “activity against Caspase-9” value (Caspase-9)?
A: The value was “little activity”.

Q: And the “tumor growth vs. vehicle” value (OCI-Ly1 xenografts; fourteen injections, p=0.47)?
A: Its value is “no effect on the growth”.

Q: What about the “proliferation (Ki-67 staining)” value (OCI-Ly1 xenografts; p=1.0) of the same compound?
A: Its value is “no difference”.

Q: And the ALBUMIN ([2]; d14)?
A: The ALBUMIN was 3.12 g/dL.

Q: And the ALP ([2]; d14)?
A: The ALP was 83 U/L.

Q: What about the ALT ([2]; d14) of the same compound?
A: Its ALT is 25 U/L.

Q: What about the AST ([2]; d14) of the same compound?
A: The AST was 70 U/L.

Q: And the BASOPHILS ([2]; d14)?
A: The BASOPHILS was 0.01 K/μL.

Q: What about the BUN ([2]; d14) of the same compound?
A: Its BUN is 23.4 mg/dL.

Q: What about the CALCIUM ([2]; d14) of the same compound?
A: Its CALCIUM is 10.88 mg/dL.

Q: What about the CHLORIDE ([2]; d14) of the same compound?
A: The CHLORIDE was 108.4 mEq/L.

Q: What about the CHOLESTEROL ([2]; d14) of the same compound?
A: The CHOLESTEROL was 85.4 mg/dL.

Q: What about the CK ([2]; d14) of the same compound?
A: Its CK is 202.8 U/L.

Q: What about the CREATININE ([2]; d14) of the same compound?
A: Its CREATININE is 0.22 mg/dL.

Q: What about the “DIRECT BILIRUBIN” value ([2]; d14) of the same compound?
A: Its value is 0.10 mg/dL.

Q: What about the EOSINOPHILS ([2]; d14) of the same compound?
A: Its EOSINOPHILS is 0.03 K/μL.

Q: What about the GGT ([2]; d14) of the same compound?
A: Its GGT is 0 U/L.

Q: And the GLOBULIN ([2]; d14)?
A: The GLOBULIN was 2.20 g/dL.

Q: And the GLUCOSE ([2]; d14)?
A: The GLUCOSE was 313.8 mg/dL.

Q: What about the HEMATOCRIT ([2]; d14) of the same compound?
A: Its HEMATOCRIT is 40.86%.

Q: And the HEMOGLOBIN ([2]; d14)?
A: Its HEMOGLOBIN is 12.94 g/dL.

Q: And the “INDIRECT BILIRUBIN” value ([2]; d14)?
A: Its value is 0.08 mg/dL.

Q: What about the LYMPHOCYTES ([2]; d14) of the same compound?
A: Its LYMPHOCYTES is 6.29 K/μL.

Q: And the MONOCYTES ([2]; d14)?
A: The MONOCYTES was 0.32 K/μL.

Q: What about the NEUTROPHILS ([2]; d14) of the same compound?
A: Its NEUTROPHILS is 1.18 K/μL.

Q: What about the PHOSPHORUS ([2]; d14) of the same compound?
A: The PHOSPHORUS was 9.46 mg/dL.

Q: And the PLATELETS ([2]; d14)?
A: Its PLATELETS is 981 K/μL.

Q: What about the RBC ([2]; d14) of the same compound?
A: Its RBC is 8.60 M/μL.

Q: And the SODIUM ([2]; d14)?
A: Its SODIUM is 152.8 mEq/L.

Q: What about the “TOTAL BILIRUBIN” value ([2]; d14) of the same compound?
A: The value was 0.180 mg/dL.

Q: What about the “TOTAL PROTEIN” value ([2]; d14) of the same compound?
A: Its value is 5.32 g/dL.

Q: And the WBC ([2]; d14)?
A: The WBC was 7.83 K/μL.

Q: What about the ALBUMIN ([2]; d24 (10-day washout)) of the same compound?
A: Its ALBUMIN is 3.15 g/dL.

Q: What about the ALP ([2]; d24 (10-day washout)) of the same compound?
A: Its ALP is 100 U/L.

Q: What about the ALT ([2]; d24 (10-day washout)) of the same compound?
A: The ALT was 23 U/L.

Q: What about the AST ([2]; d24 (10-day washout)) of the same compound?
A: Its AST is 49.5 U/L.

Q: And the BASOPHILS ([2]; d24 (10-day washout))?
A: Its BASOPHILS is 0.04 K/μL.

Q: And the BUN ([2]; d24 (10-day washout))?
A: The BUN was 27.0 mg/dL.

Q: And the CALCIUM ([2]; d24 (10-day washout))?
A: Its CALCIUM is 10.80 mg/dL.

Q: And the CHLORIDE ([2]; d24 (10-day washout))?
A: Its CHLORIDE is 106.7 mEq/L.

Q: What about the CHOLESTEROL ([2]; d24 (10-day washout)) of the same compound?
A: Its CHOLESTEROL is 91.75 mg/dL.

Q: What about the CK ([2]; d24 (10-day washout)) of the same compound?
A: Its CK is 119.5 U/L.

Q: What about the CREATININE ([2]; d24 (10-day washout)) of the same compound?
A: Its CREATININE is 0.20 mg/dL.

Q: And the “DIRECT BILIRUBIN” value ([2]; d24 (10-day washout))?
A: The value was 0.10 mg/dL.

Q: What about the EOSINOPHILS ([2]; d24 (10-day washout)) of the same compound?
A: The EOSINOPHILS was 0.11 K/μL.

Q: What about the GGT ([2]; d24 (10-day washout)) of the same compound?
A: The GGT was 0 U/L.

Q: What about the GLOBULIN ([2]; d24 (10-day washout)) of the same compound?
A: The GLOBULIN was 2.15 g/dL.

Q: And the GLUCOSE ([2]; d24 (10-day washout))?
A: The GLUCOSE was 288.5 mg/dL.

Q: What about the HEMATOCRIT ([2]; d24 (10-day washout)) of the same compound?
A: Its HEMATOCRIT is 45.02%.

Q: And the HEMOGLOBIN ([2]; d24 (10-day washout))?
A: Its HEMOGLOBIN is 13.55 g/dL.

Q: And the “INDIRECT BILIRUBIN” value ([2]; d24 (10-day washout))?
A: The value was 0.07 mg/dL.

Q: And the LYMPHOCYTES ([2]; d24 (10-day washout))?
A: Its LYMPHOCYTES is 6.76 K/μL.

Q: And the MONOCYTES ([2]; d24 (10-day washout))?
A: The MONOCYTES was 0.27 K/μL.

Q: What about the NEUTROPHILS ([2]; d24 (10-day washout)) of the same compound?
A: The NEUTROPHILS was 1.85 K/μL.

Q: What about the PHOSPHORUS ([2]; d24 (10-day washout)) of the same compound?
A: Its PHOSPHORUS is 9.65 mg/dL.

Q: What about the PLATELETS ([2]; d24 (10-day washout)) of the same compound?
A: The PLATELETS was 1275 K/μL.

Q: What about the RBC ([2]; d24 (10-day washout)) of the same compound?
A: Its RBC is 9.38 M/μL.

Q: And the SODIUM ([2]; d24 (10-day washout))?
A: Its SODIUM is 153 mEq/L.

Q: And the “TOTAL BILIRUBIN” value ([2]; d24 (10-day washout))?
A: Its value is 0.175 mg/dL.

Q: What about the “TOTAL PROTEIN” value ([2]; d24 (10-day washout)) of the same compound?
A: Its value is 5.30 g/dL.

Q: What about the WBC ([2]; d24 (10-day washout)) of the same compound?
A: The WBC was 9.03 K/μL.

Q: And the bone marrow histology ([2]; daily IP 25 mg/kg over 14 days)?
A: Its bone marrow histology is “normocellular with trilineage maturing hematopoiesis”.

Q: What about the “complete peripheral blood counts, biochemistry and liver function tests” value ([2]; daily IP 25 mg/kg over 14 days) of the same compound?
A: The value was “normal”.

Q: What about the “toxic effects, weight loss, tissue damage” value ([2]; daily IP 25 mg/kg over 14 days, cumulative 350 mg/kg) of the same compound?
A: Its value is “No toxic effects or other indicators of sickness”.
